Results as given in patent US12414940B2, “Method of treating malignant tumor by azabicyclic compound” (TAIHO PHARMACEUTICAL CO., LTD., priority 2018, dated 2025).

Columns and labels:
Type in all cases: in vivo, human
[1] = system: patients with local progressive unresectable or metastatic GIST; assay: Study in GIST patients: safety, tolerability and eye disorder; settings: 160 mg/body/day oral
Protocol: Purpose: In order to evaluate the effectiveness and safety, etc. of compound 1, this study was conducted for the purpose of evaluating the effectiveness and safety, etc. of the compound 1, targeting patients with local progressive unresectable or metastatic GIST who received the administration of imatinib, sunitinib or regorafenib in the past.
From the results of the study of Example 1, this study was carried out according to a schedule involving administration for 5 consecutive days and 2-day withdrawal period. The daily dose of the compound 1 was 160 mg/body/day for oral administration. One cycle was set to 21 days. The administration of the compound 1 was continued until the end date of the clinical trial or any of predetermined criterion for discontinuation were applicable.
For the evaluation of eye disorder, interview, visual acuity examination (corrected), intraocular pressure measurement, fundus examination, slit-lamp microscopy, optical coherence tomography (OCT), and color perception examination were carried out at the time of a baseline within 14 days before enrollment and at the completion of administration of the study drug.
Interview, visual acuity examination (corrected), intraocular pressure measurement, fundus examination, optical coherence tomography (OCT), slit-lamp microscopy, and color perception examination were further carried out as much as possible every 12 weeks after the start of administration of the study drug and every 24 weeks on week 48 or later (within ±7 days).
In addition to the determined ophthalmologic examination described above, ophthalmologic examination was appropriately carried out when eye problems were found by regular interview by clinical investigators or by declaration from patients themselves.

solid cancer patients [2] = assay: Phase I study in solid cancer patients: tumor response by RECIST Guideline Version 1.1
Protocol: (§1) Purpose: This study was conducted for the purpose of determining a maximum tolerated dose (MTD) and estimating a recommended dose (RD) and an administration method when compound 1 was administered with one cycle set to 21 days targeting solid cancer patients, and of evaluating safety and observing an antitumor effect when the compound 1 was administered with one cycle set to 21 days targeting the patients, for example.
(§2) Method: The compound 1 was repeatedly administered between meals once a day in Step 1, and orally administered between meals every other day in Step 2. In Step 1, the initial dose was set to 4.8 mg/m^2 (level 1), and the dose of the compound 1 at each level was determined depending on a body surface area. The initial dose of Step 2 (level 1 of Step 2) was set to MTD (mg/m^2/day) of Step 1. The study was continued until the disease progressed or an intolerable adverse event occurred.
After determination of MTD for once-daily administration, administration was performed by once-daily administration, by alternate-day administration (repeated administration at cycles each involving one-day administration and one-day withdrawal period on the next day), or by a schedule involving administration for 5 consecutive days and 2-day withdrawal period, and evaluation was conducted.
An antitumor effect on tumor was determined according to RECIST Guideline Version 1.1 (European Journal of Cancer 45 (2009) 228-247), and tumor shrinkage was evaluated by comprehensive evaluation on target lesions (lesions equal to or larger than a measurable size depending on a slice width in a diagnosis method (MRI, CT, X ray, etc.) measured at the time of enrollment) and non-target lesions (all lesions except for the target lesions).
The overall response of each case was evaluated according to the following criteria, and the best overall response was evaluated after confirmation of duration of the effect.
The best overall response was evaluated according to the following 5 levels. • CR: After reaching CR first, the CR status was maintained in examination performed after a lapse of at least 4 weeks or longer. • PR: After reaching PR first, the PR status was maintained in examination performed after a lapse of at least 4 weeks or longer. • SD: Neither CR nor PR was attained and no PD was confirmed in examination performed after a lapse of at least 6 weeks or longer from the start of administration. • PD: PD of target lesions or non-target lesions was confirmed without satisfying the criterion of CR, PR and SD, or the appearance of a new lesion was confirmed.
Proportion of cases with best overall response of CR and PR in an analyte population.
Proportion of cases with best overall response of CR, PR, Non-CR/non-PD, or SD continued for 12 weeks or longer in an analyte population.
Patients with non-small cell lung cancer, gastrointestinal stromal tumor, thymic cancer, biliary tract cancer, breast cancer, adenoid cystic cancer, pancreatic cancer, stomach cancer, ovary cancer, skin cancer, neuroblastoma, head and neck cancer, esophageal cancer, kidney cancer, colorectal cancer, sarcoma, mesothelioma, or the like entered the test.

solid cancer patients [3] = assay: Phase I study in solid cancer patients: determination of maximum tolerated dose (MTD); settings: for MTD: oral
Protocol: as §1, §2
The dose (mg/body) to a study subject was calculated as described below. Dose (mg/body)=Dose (mg/m^2)×Body surface area (m^2)
The body surface area (BSA) was calculated to the second decimal place by rounding a value off to two decimal places using the formula of DuBois given below. The dose (mg/body) was calculated to an integer by rounding a value off to the closest whole number, and less than 2 mg was cut off because the minimum tablet dose in this study was 2 mg. BSA=([Body weight (kg)]0.425×[Body height (cm)]0.725)×0.007184

[4] = 5 consecutive days and 2-day withdrawal period
[5] = administration for consecutive days

CCc1cc(C(N)=O)ccc1-n1nc(C(C)C)c2c(-n3cnc(-c4cnn(C)c4)c3)ccnc21 [compound 1, 3-Ethyl-4-[3-(1-methylethyl)-4-[4-(1-methyl-1H-pyrazol-4-yl)-1H-imidazol-1-yl]-1H-pyrazolo[3,4-b]pyridin-1-yl]benzamide]
frequency of occurrence of eye disorder [1, 4]: 20%
grade of eye disorder in all the patients [1, 4]: grade 1
tolerability [1, 4]: good tolerability
related adverse events observed ([1]; 5 consecutive days and 2-day withdrawal, reversible by discontinuation or decrease in dose): digestive tract disorder and elevated plasma creatinine levels
DCR (≥12 weeks), % of patients (solid cancer patients [2]; QD × 5, n = 18): (38.9) %
DCR (≥12 weeks), number of patients (solid cancer patients [2]; QD × 5, n = 18): 7
NE, % of patients (solid cancer patients [2]; QD × 5, n = 18): (5.6) %
NE, number of patients (solid cancer patients [2]; QD × 5, n = 18): 1
PD, % of patients (solid cancer patients [2]; QD × 5, n = 18): (44.4) %
PD, number of patients (solid cancer patients [2]; QD × 5, n = 18): 8
PR, % of patients (solid cancer patients [2]; QD × 5, n = 18): (0.0) %
PR, number of patients (solid cancer patients [2]; QD × 5, n = 18): 0
RR, % of patients (solid cancer patients [2]; QD × 5, n = 18): (0.0) %
RR, number of patients (solid cancer patients [2]; QD × 5, n = 18): 0
DCR (≥12 weeks), % of patients (solid cancer patients [2]; QD, n = 16): (31.3) %
DCR (≥12 weeks), number of patients (solid cancer patients [2]; QD, n = 16): 5
NE, % of patients (solid cancer patients [2]; QD, n = 16): (12.5) %
NE, number of patients (solid cancer patients [2]; QD, n = 16): 2
PD, % of patients (solid cancer patients [2]; QD, n = 16): (31.3) %
PD, number of patients (solid cancer patients [2]; QD, n = 16): 5
PR, % of patients (solid cancer patients [2]; QD, n = 16): (12.5) %
PR, number of patients (solid cancer patients [2]; QD, n = 16): 2
RR, % of patients (solid cancer patients [2]; QD, n = 16): (12.5) %
RR, number of patients (solid cancer patients [2]; QD, n = 16): 2
DCR (≥12 weeks), % of patients (solid cancer patients [2]; QOD, n = 26): (14.4) %
DCR (≥12 weeks), number of patients (solid cancer patients [2]; QOD, n = 26): 4
NE, % of patients (solid cancer patients [2]; QOD, n = 26): (3.8) %
NE, number of patients (solid cancer patients [2]; QOD, n = 26): 1
PD, % of patients (solid cancer patients [2]; QOD, n = 26): (57.7) %
PD, number of patients (solid cancer patients [2]; QOD, n = 26): 15
PR, % of patients (solid cancer patients [2]; QOD, n = 26): (3.8) %
PR, number of patients (solid cancer patients [2]; QOD, n = 26): 1
RR, % of patients (solid cancer patients [2]; QOD, n = 26): (3.8) %
RR, number of patients (solid cancer patients [2]; QOD, n = 26): 1
MTD converted to the fixed dose (solid cancer patients [3]; [5]): 160 mg/body/day
MTD (solid cancer patients [3]; [5]): 107.5 mg/m^2/day
MTD converted to the fixed dose (solid cancer patients [3]; alternate-day administration): 340 mg/body/day
MTD (solid cancer patients [3]; alternate-day administration): 210 mg/m^2/day
